Experimental findings from patent publication US9557338B2 (SIGNAL PHARMACEUTICALS, LLC, priority 2012, dated 2017) are described below.

Like-named read-outs stand apart in the source and are kept apart here. Where only a bound is given, the exact number is not on record here.

Holding throughout (type): cell-based
The subject of assay [1] is Phospho-4E-BP1(T46). Briefly: Luminex multiplex assay, Phospho-4E-BP1(T46). The note with it: not inhibited up to concentrations tested; read-out: inhibition of 4E-BP1(T46) phosphorylation. The text has this:
Determination of Phospho-GSK3β(S9), Phospho-PRAS40(T246) and Phospho-4E-BP1(T46) and the Effect of Compound 1 or Rapamycin.
The multiplex Luminex assay format differs from conventional enzyme-linked immunosorbent assay (ELISA) in that the multiplex capture antibody is attached to a polystyrene bead whereas the ELISA capture antibody is attached to the microplate well. The use of the suspension bead-based technology enables the multiplexing capabilities of the Luminex assays. The xMAP® technology uses 5.6 micron polystyrene microspheres, which are internally dyed with red and infrared fluorophores of differing intensities. Each bead is given a unique number, or bead region, allowing differentiation of one bead from another. Beads covalently bound to different specific antibodies can be mixed in the same assay, utilizing a 96-well microplate format. At the completion of the sandwich immunoassay, beads can be read, using the Luminex 100™ or Luminex 200 detection system, in single-file by dual lasers for classification and quantification of each analyte. The Akt-Pathway Phospho 5-plex kit used was custom made and includes the ability to simultaneously measure p-GSK3β (S9), p-PRAS40(T246), and p-4E-BP1(T46).
Cells were plated at the required density. The cells were treated with either Compound 1 or rapamycin over a range of concentrations for 1 hour in 5% CO2 at 37° C. Compound 1 and rapamycin were used at the same concentrations as for the proliferation assay. As for the cell proliferation assay, a reference standard was included in the assay for PC3 cells and the coefficient of variation for assay of p-GSK3β(S9) was 37.8% (n=30), p-PRAS40(T246) was 27.8% (n=30) and for p4E-BP1(T46) was 13.5% (n=4). For three cell lines (HCT-116, MDA-MB-231 and HT29) in the assay for phosphorylation of GSK3β, PRAS40 and 4E-BP1, IGF-I stimulation (500 ng/mL, recombinant human IGF-I) for the last 10 min of incubation was used. The media was aspirated from the wells and the plate was placed on ice. Then 35 μL of Lysis Buffer was added to each well and incubated on ice for at least 30 minutes. During the incubation, the standard curve for each phosphoprotein was prepared. The standards provided were reconstituted and serial dilutions were prepared according to the manufacturer's instructions. At the end of the cell lysis step, […] of the lysate was transferred to a V-bottom plate and spun at 4° C. at 2000 rpm for 5 minutes. Both the 1× Luminex bead and 1× detector antibody solutions were prepared during this time. The 1× bead solution was vortexed and 25 μL was added into each well of a black round bottom plate. Then 50 μL of the 1× detector antibody was added to each well. Fifty microliters (50 μL) of the prepared standards were added to the designated wells. Then 25 μL of the assay diluent was added to each well designated for the compound-treated cell lysates. At the end of the spin, 25 μL of cell lysate was added to the corresponding wells of the black assay plate. The assay plate was covered with the white plate lid and incubated for 3 hours at room temperature on an orbital shaker.
Approximately 10-15 minutes prior to the end of the first incubation, the secondary antibody solution was prepared according to the vendor's protocol. Goat anti-rabbit R-phycoerythrin red fluorescent protein (RPE) supplied as a 10× concentrate was diluted to generate a 1× goat anti-rabbit RPE stock. The 96-well filter plate was pre-wet with 200 μL of 1× Working wash solution. At the end of the 3 hour incubation, a multichannel pipette was used to transfer the entire contents from each assay well into the wells of the filter plate. The liquid from the wells was removed by aspiration with the vacuum manifold. Then 200 μL of 1× Working wash solution was added into each well. The wash solution was aspirated using the vacuum manifold after 15-30 seconds. This wash step was repeated one time. The bottom of the plate was blotted on clean paper towels to remove residual liquid. […]

For assay [2], the system named is S6RP(S235/S236). Nature of the assay: Inhibition of S6RP(S235/S236) phosphorylation in cell lines. The note with it: Homo sapiens, read-out: IC50 for inhibition of S6RP(S235/S236) phosphorylation.
Assay [3] concerns Akt(S473). Nature of the assay: Inhibition of Akt(S473) phosphorylation in cell lines. As to conditions: data not shown.
In assay [4] the test system is Phospho-p70S6K (T389). Nature of the assay: MSD assay, phospho-p70S6K (T389) in cell lysates. As to conditions: PC3 cell line; read-out: MSD p70S6K. Here is the method:
Determination of Phospho-p70S6K (T389) in Cell Lysates.
MSD® biomarker detection assays provide a rapid and convenient method for measuring the total and phosphorylated levels of protein targets within a single small-volume sample. In the assay, an antibody for a specific protein target is coated on one electrode (or spot) per well. The samples (cell lysates) are added to the well with a solution containing the detection antibody labeled with an electrochemiluminescent (ECL) compound, MSD SULFOTAG™ label, over the course of one or more incubation periods. The total protein present in the sample binds to the capture antibodies immobilized on the working electrode surface; recruitment of the labeled detection antibody by bound phospho-p70S6K completes the sandwich. MSD Read Buffer that provides the appropriate chemical environment for ECL is added and the plate is read using an MSD SECTOR™ Imager. Inside the SECTOR Imager, a voltage is applied to the plate electrodes which cause the labels bound to the electrode surface to emit light. The instrument measures intensity of the emitted light to afford a quantitative measure of the amount of phosphorylated protein present in the sample.
Cells were plated in 96-well flat bottom plates at the required density determined for each cell line and the cells were allowed to equilibrate at 37° C., 5% CO2 overnight. The following day, the cells were treated with Compound 1 over a range of concentrations for one hour in 5% CO2 at 37° C. After the incubation period, the culture medium was removed carefully with an aspirator. The plate was placed on ice and 50 μL of 1× Tris Lysis Buffer were added to each well. The plate was placed on a shaker at 4° C. for one hour to lyse the cells. At that point, the plate was either frozen at −80° C. for later analysis or immediately assayed for phosphoproteins as described below. To monitor interassay variability, Compound 1 was compared among all plates as a reference standard.
The assay plate was incubated with 150 μL of MSD Blocking Buffer for one hour with shaking at room temperature. The plates were washed 3 times with Tris Wash Buffer. Then 35 μL of cell lysate was added to the wells and incubated for one hour with shaking at room temperature. The solution was removed from the wells and the plate was washed 3 times with wash buffer. Twenty-five microliters of the appropriate antibody solution was then incubated for one hour with shaking at room temperature. The solution was removed from the wells and the plate was washed 3 times with wash buffer. Then 150 μL of 1×MSD Read Buffer T was added to each well. The plate was read on the SECTOR Imager plate reader.

For assay [5], the system named is p70S6K. Briefly: Luminex multiplex assay, p70S6K phosphorylation in cell lysates. As to conditions: PC3 cell line; read-out: Luminex p70S6K.
Assay [6] deals with GSK-3β. Nature of the assay: MSD assay, GSK-3β phosphorylation in cell lysates. The note with it: PC3 cell line; read-out: MSD GSK-3β.
Assay [7] concerns Phospho-GSK3β(S9). Nature of the assay: Luminex multiplex assay, Phospho-GSK3β(S9). The note with it: PC3 cell line; read-out: Luminex GSK-3β. The gist of the method: (§1)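 Cells (PC3; HCT-116, MDA-MB-231 and HT29 with 500 ng/mL recombinant human IGF-I for the final 10 min) treated with compound or rapamycin over a concentration range for 1 h at 37° C, 5% CO2. Lysates read by bead-based Luminex sandwich immunoassay, 3 h at room temperature, RPE anti-rabbit detection, quantified against phosphoprotein standard curves.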

Assay [8] has as its system Phospho-PRAS40(T246). Briefly: Luminex multiplex assay, Phospho-PRAS40(T246). As to conditions: PC3 cell line; read-out: Luminex PRAS40. In outline:
as §1

With `CO[C@H]1C[C@@H]2CC[C@@H](C)[C@@](O)(O2)C(=O)C(=O)N2CCCC[C@H]2C(=O)O[C@H]([C@H](C)C[C@@H]2CC[C@@H](O)[C@H](OC)C2)CC(=O)[C@H](C)/C=C(\C)[C@@H](O)[C@@H](OC)C(=O)[C@H](C)C[C@H](C)/C=C/C=C/C=C/1C` [rapamycin, reference compound], the IC50 in assay [1] is more than 10000 nM; in assay [2] (HCT-116, HCT116 cell line), 0.029 nM; in assay [2] (PC-3, PC3 cell line), 0.019 nM. Besides, the “inhibition of the phosphorylation of Akt(S473)” value in assay [3] was “did not inhibit”.
As to `COC1CCC(N2C(=O)CNc3ncc(-c4ccc(C(C)(C)O)nc4)nc32)CC1` (stereo not drawn) [C-15], the IC50 in assay [4] is 82 nM; in assay [5] it was 32 nM; in assay [6] it was more than 500 nM; in assay [7], 240 nM; in assay [8] it was 96 nM.
